In US20230382926A1, “COMPOUNDS AND USES THEREOF” (The University of The West Indies, priority 2022, published 2023):

Experiments:
Assay in all cases: Rescue concentration, modified checkerboard MIC adjuvant assay
Assay type in all cases: cell-based
[1] = test system: Enterococcus faecalis ATCC 51299; conditions: E. faecalis ATCC 51299
Method: (§1) Reference microorganisms as well as clinical strains used to evaluate the antimicrobial adjuvant properties of SP-6azaBIM 125 and SP-6azaBIM 136 are listed in Table 3. Clinical strains of bacteria were kindly provided by the Faculty of Medical Sciences, UWI, St. Augustine, Trinidad. All bacterial cultures were cryopreserved in 30% glycerol/Brain Heart Infusion (BHI) at −80° C. Cultures were revived on BHI agar (Oxoid Ltd, England) and maintained at 4° C. until needed.
(§2) Prior to each experiment, cultures were streaked onto clean BHI agar plates and incubated at 35° C. for 24 hours. Colonies of the respective cultures were selected and inoculated in phosphate buffer saline (pH 7.5) to a 0.5 McFarland turbidity standard (equivalent to 10^8 CFU mL^−1). For inhibitory studies the bacterial suspensions were diluted 1:100 in cation-adjusted Mueller Hinton Broth (ca-MHB) (Oxoid Ltd, England). Fastidious bacteria including Streptococcus pneumoniae, Haemophilus infuenzae and Clostridium difficile were maintained on BHI agar with 5% defibrinated sheep blood and diluted in ca-MHB with 5% defibrinated sheep blood.
(§3) Antibiotic powders used in this study were purchased from Sigma Aldrich Ltd. (WI, USA). Antibiotic stock solutions were made at 50 mg mL^−1 according to Andrews (2001) and working solutions were prepared 24 h before use and stored at 4° C.
(§4) HCl salts of the of the SP-azaBIM test compounds were prepared prior to testing and stored at 4° C. Working preparations of each compound were made to 1 mg/mL in sterile deionised water.
(§5) The antibiotic adjuvant activity of the SPazaBIMs were evaluated in combination with representative antibiotics (representing 13 antibiotic classes) against the 19 pathogens strains listed in Table 3. To assess the adjuvant properties of the SP-azaBIM molecules, a modified checkerboard minimum inhibitory concentration assay was used. A fixed concentration of the respective antibiotic (susceptible breakpoint concentration) was mixed with a twofold dilution series of the test SP-azaBIM (FIG. 1). This was to determine the concentration of SP-azaBIM needed potentiate the antibiotic at a clinically susceptible breakpoint concentration. Antibiotic susceptible breakpoint concentrations for the respective bacteria were determined using Clinical Laboratory Standards Institute (CLSI) criteria M100 ED31.
(§6) In this study, only those antibiotics to which the bacterial was classed as resistant were included in the adjuvant assays. In this assay we recorded the rescue concentration of the SP-BIM for a respective antibiotic. The rescue concentration was defined as the concentration of the adjuvant that reduces the minimum inhibitory concentration (MIC) of an antibiotic to the susceptibility breakpoint.
(§7) Immediately prior to testing, the respective antibiotic and SP-azaBIM was dissolved in sterile deionised water at 20× the required test concentration. Each microtiter well was then inoculated with 180 μl of bacterial inoculum of 10^6 CFU/ml in ca-MHB, and 10 μl each if the antibiotic and SP-azaBIM was added to the plates. These plates were then incubated at 35° C. for 24 h under aerobic conditions. A similar method was followed for the fastidious pathogens except that they were cultured in ca-MHB with 5% sheep blood and 5% CO2.
(§8) Bacterial growth was visually inspected after the incubation period and the rescue concentration of the test SP-azaBIM was determined as the lowest concentration of the compound needed to reduce bacterial growth by 99.99% at the susceptible breakpoint concentration of the antibiotic. For example, CLSI states that Pseudomonas aeruginosa is susceptible to the Imipenem if the MIC is ≤2 μg mL^−1. If the bacteria can tolerate this concentration in vitro, then the bacteria has an intermediate or absolute resistance toward that antibiotic. […]

[2] = test system: Klebsiella pneumoniae ATCC 49472; conditions: K. pneumoniae ATCC 49472
Method: as §1, §2, §3, §4, §5, §6, §7, §8

[3] = test system: Acinetobacter baumannii clinical isolate 9978; conditions: A. baumannii clinical isolate 9978
Method: as §1, §2, §3, §4, §5, §6, §7, §8

[4] = test system: Staphylococcus aureus ATCC BAA-2312; conditions: S. aureus ATCC BAA-2312
Method: as §1, §2, §3, §4, §5, §6, §7, §8

[5] = test system: Enterobacter cloacae ATCC BAA-1143; conditions: E. cloacae ATCC BAA-1143
Method: as §1, §2, §3, §4, §5, §6, §7, §8

[6] = test system: Escherichia coli ATCC 35150; conditions: E. coli ATCC 35150
Method: as §1, §2, §3, §4, §5, §6, §7, §8

[7] = test system: Pseudomonas aeruginosa MDR 5805; conditions: P. aeruginosa MDR 5805
Method: as §1, §2, §3, §4, §5, §6, §7, §8

[8] = test system: Streptococcus pneumoniae ATCC 49619; conditions: S. pneumoniae ATCC 49619
Method: as §1, §2, §3, §4, §5, §6, §7, §8

[9] = test system: Klebsiella pneumoniae ATCC BAA-2814; conditions: K. pneumoniae ATCC BAA-2814
Method: as §1, §2, §3, §4, §5, §6, §7, §8

[10] = Amp at susceptible breakpoint 8 μg mL^−1
[11] = Chl at susceptible breakpoint 8 μg mL^−1
[12] = Dox at susceptible breakpoint 4 μg mL^−1
[13] = Tri at susceptible breakpoint 8 μg mL^−1
[14] = Amox at susceptible breakpoint 8 μg mL^−1
[15] = Col at susceptible breakpoint 8 μg mL^−1
[16] = Imi at susceptible breakpoint 1 μg mL^−1
[17] = Col at susceptible breakpoint 2 μg mL^−1
[18] = Gen at susceptible breakpoint 4 μg mL^−1
[19] = Imi at susceptible breakpoint 2 μg mL^−1
[20] = Mero at susceptible breakpoint 2 μg mL^−1
[21] = Pol B at susceptible breakpoint 2 μg mL^−1
[22] = Azi at susceptible breakpoint 16 μg mL^−1
[23] = Ceph at susceptible breakpoint 8 μg mL^−1
[24] = Tet at susceptible breakpoint 4 μg mL^−1

## Brc1ccc(C(c2c[nH]c3cnccc23)c2c[nH]c3cnccc23)cc1 [SP-6azaBIM 125, 3,3′-((4-bromophenyl)methylene)bis(1H-pyrrolo[2,3-c]pyridine)]
[1]; [10]
  Rescue concentration, Amp (8): >128 µg/mL
[1]; [11]
  Rescue concentration, Chl (8): >128 µg/mL
[1]; [12]
  Rescue concentration, Dox (4): >128 µg/mL
[1]; Ery at susceptible breakpoint 0.5 μg mL^−1
  Rescue concentration, Ery (0.5): >128 µg/mL
[1]; [13]
  Rescue concentration, Tri (8): >128 µg/mL
[1]; Van at susceptible breakpoint 4 μg mL^−1
  Rescue concentration, Van (4): >128 µg/mL
[2]; [14]
  Rescue concentration, Amox (8): 4 µg/mL
[2]; [10]
  Rescue concentration, Amp (8): 16 µg/mL
[2]; [15]
  Rescue concentration, Col (8): 4 µg/mL
[2]; [16]
  Rescue concentration, Imi (1): 2 µg/mL
[2]; Mero at susceptible breakpoint 1 μg mL^−1
  Rescue concentration, Mero (1): 4 µg/mL
[2]; Pol B at susceptible breakpoint 8 μg mL^−1
  Rescue concentration, Pol B (8): 4 µg/mL
[3]; [14]
  Rescue concentration, Amox (8): 16 µg/mL
[3]; Cef at susceptible breakpoint 8 μg mL^−1
  Rescue concentration, Cef (8): 2 µg/mL
[3]; [17]
  Rescue concentration, Col (2): 4 µg/mL
[3]; [18]
  Rescue concentration, Gen (4): 2 µg/mL
[3]; [19]
  Rescue concentration, Imi (2): 4 µg/mL
[3]; [20]
  Rescue concentration, Mero (2): 8 µg/mL
[3]; [21]
  Rescue concentration, Pol B (2): 16 µg/mL
[4]; Azi at susceptible breakpoint 2 μg mL^−1
  Rescue concentration, Azi (2): >128 µg/mL
[4]; [18]
  Rescue concentration, Gen (4): 64 µg/mL
[4]; Pen at susceptible breakpoint 0.12 μg mL^−1
  Rescue concentration, Pen (0.12): >128 µg/mL
[4]; [13]
  Rescue concentration, Tri (8): >128 µg/mL
[4]; Van at susceptible breakpoint 2 μg mL^−1
  Rescue concentration, Van (2): >128 µg/mL
[5]; [10]
  Rescue concentration, Amp (8): 32 µg/mL
[5]; [22]
  Rescue concentration, Azi (16): >128 µg/mL
[5]; [23]
  Rescue concentration, Ceph (8): >128 µg/mL
[5]; [11]
  Rescue concentration, Chl (8): >128 µg/mL
[5]; [15]
  Rescue concentration, Col (8): >128 µg/mL
[5]; [12]
  Rescue concentration, Dox (4): >128 µg/mL
[5]; [18]
  Rescue concentration, Gen (4): >128 µg/mL
[5]; [16]
  Rescue concentration, Imi (1): >128 µg/mL
[5]; [24]
  Rescue concentration, Tet (4): >128 µg/mL
[6]; Cip at susceptible breakpoint 0.25 μg mL^−1
  Rescue concentration, Cip (0.25): 8 µg/mL
[6]; [15]
  Rescue concentration, Col (8): 2 µg/mL
[6]; [12]
  Rescue concentration, Dox (4): 32 µg/mL
[6]; [16]
  Rescue concentration, Imi (1): 4 µg/mL
[7]; [14]
  Rescue concentration, Amox (8): 128 µg/mL
[7]; [17]
  Rescue concentration, Col (2): >128 µg/mL
[7]; [18]
  Rescue concentration, Gen (4): 16 µg/mL
[7]; [19]
  Rescue concentration, Imi (2): >128 µg/mL
[7]; [20]
  Rescue concentration, Mero (2): >128 µg/mL
[7]; [21]
  Rescue concentration, Pol B (2): >128 µg/mL
[8]; Amox at susceptible breakpoint 2 μg mL^−1
  Rescue concentration, Amox (2): >128 µg/mL
[8]; Ery at susceptible breakpoint 0.25 μg mL^−1
  Rescue concentration, Ery (0.25): >128 µg/mL
[8]; Imi at susceptible breakpoint 0.12 μg mL^−1
  Rescue concentration, Imi (0.12): >128 µg/mL
[9]; [14]
  Rescue concentration, Amox (8): 4 µg/mL
[9]; [10]
  Rescue concentration, Amp (8): 16 µg/mL
[9]; Aze at susceptible breakpoint 4 μg mL^−1
  Rescue concentration, Aze (4): 4 µg/mL
[9]; [22]
  Rescue concentration, Azi (16): 32 µg/mL
[9]; Cef at susceptible breakpoint 16 μg mL^−1
  Rescue concentration, Cef (16): 16 µg/mL
[9]; [23]
  Rescue concentration, Ceph (8): 32 µg/mL
[9]; [11]
  Rescue concentration, Chl (8): 32 µg/mL
[9]; [15]
  Rescue concentration, Col (8): 4 µg/mL
[9]; [12]
  Rescue concentration, Dox (4): 8 µg/mL
[9]; [18]
  Rescue concentration, Gen (4): 16 µg/mL
[9]; [16]
  Rescue concentration, Imi (1): 2 µg/mL
[9]; [24]
  Rescue concentration, Tet (4): 32 µg/mL
